Assay results as given in the supplement of paper PMC6723410.

system: GUMC-403; assay: viability at highest tested concentration (max response) relative to DMSO (% of DMSO control); higher = less cytotoxic; details: library / dose series: MIPE library, 11-point 1:3 dilution; top concentration 4.61 µM; 48 h
How it was run: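 In 1536-well plates, 700 GUMC-403 papilloma cells per well, taken from a patient and grown by conditional reprogramming, were seeded in 5 μL F + Y medium and incubated overnight at 37 °C. Compounds were pinned in at 23 nL in an 11-point 1:3 series, and left for 48 h before CellTiter-Glo luminescence was read on a ViewLux against vehicle (100%) and empty (0%) wells. Reported values are viability at the highest tested concentration relative to vehicle control.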

Row | Structure (SMILES) | viability
1 | CC(C)(C)[C@H](NC(=O)c1ccc(N)c(Cl)c1)C(=O)N1CCC[C@H]1C(=O)N[C@H](C#N)CC(=O)O | 131

same assay, conditions: library / dose series: MIPE library, 11-point 1:3 dilution; top concentration 7.37 µM; 48 h

Row | Structure (SMILES) | viability
2 | COc1ccc(CC2c3cc(OC)c(OC)cc3CC[N+]2(C)CCC(=O)OCCCCCOC(=O)CC[N+]2(C)CCc3cc(OC)c(OC)cc3C2Cc2ccc(OC)c(OC)c2)cc1OC (configuration not stated) | 84

same assay, conditions: library / dose series: MIPE library, 11-point 1:3 dilution; top concentration 23 µM; 48 h

Row | Structure (SMILES) | viability
3 | Clc1ccc2c(N3CCN(CCCN4CCN(c5ccnc6cc(Cl)ccc56)CC4)CC3)ccnc2c1 | 119
4 | COc1cccc(Nc2c(C(N)=O)cnc3c(C)cc([S+](=O)([O-])c4cccc(C(=O)N(C)C)c4)cc23)c1 | 97.1
5 | C[C@]\12CC[C@H](O)CC1=C/C[C@@H]3[C@@H]2CC[C@@]\4(C)[C@H]3C\C=C4C5=CN=CC=C5 | 110

same assay, conditions: library / dose series: MIPE library, 11-point 1:3 dilution; top concentration 46.1 µM; 48 h

Row | Structure (SMILES) | viability
6 | N=C(N)NC(=O)c1nc(Cl)c(N)nc1N | 125
7 | C[C@]1(O)CC(C1)C2=NC(=C3[N]2C=CN=C3N)C4=CC5=C(C=C4)C=CC(=N5)C6=CC=CC=C6 (configuration not stated) | 86.4
8 | O=C(OCC#CCSc1nnc(-c2cccc3ccccc23)o1)c1cc2ccccc2s1 | 102
9 | NC(=O)c1nnn(Cc2cc(Cl)c(C(=O)c3ccc(Cl)cc3)c(Cl)c2)c1N | 90.7
10 | C1COC(NC(C2CC2)C2CC2)=N1 | 91.2
11 | CC(C)[C@H](O)C(=O)N[C@@H](C)C(=O)N[C@@H]1C(=O)N(C)CCc2ccccc21 | 84.6
12 | C[C@]12CCC3c4ccc(O)cc4CCC3C1CCC2=O (some centres not stated) | 94.8
13 | O=C(NC1CCOCC1)c1ccc(-c2cc(-c3c[nH]nc3-c3ccccn3)ccn2)cc1 | 159
14 | C[C@@H]1CC[C@@]2(CC[C@]3(C)\C(=C/C[C@@H]4[C@@]5(C)C[C@@H](O)[C@H](O)[C@@](C)(CO)[C@@H]5CC[C@@]34C)[C@@H]2[C@H]1C)C(O)=O | 114
15 | CCN(CC)CCOc1ccc(Cc2ccccc2)cc1 | 101
16 | FC(F)(F)C1=CC=C2C(SCCCCCO\C3=C\O\C(CN4CCOCC4)=C/C3=O)=CC=NC2=C1 | 110
17 | COc1cc([C@@H]2c3cc4c(cc3[C@@H](O[C@@H]3O[C@@H]5CO[C@@H](c6cccs6)O[C@H]5[C@H](O)[C@H]3O)[C@H]3COC(=O)[C@H]23)OCO4)cc(OC)c1O | 56.7
18 | COc1ccc(-c2ccc3cc(C(=O)O)ccc3c2)cc1C12CC3CC(CC(C3)C1)C2 | 112
19 | OC1=CC=C(C=C1)C/2=C/C3=C(OC2)C=C(O)C=C3 | 89.4
20 | CN(C)[C@@H](CCOc1cccc2ccccc12)c1ccccc1 | 92.3
21 | COC(=O)C/1=C(C)/N/C(=C(\C1C2=CC(=CC=C2)[N+]([O-])=O)C(=O)OCCCN3CCC(CC3)(C4=CC=CC=C4)C5=CC=CC=C5)C (configuration not stated) | 128
22 | COc1ccc(/C=C\c2cc(OC)c(OC)c(OC)c2)cc1O | 93.7
23 | CCOCC(O)COc1ccc(NC(=O)CC[S+](C)C)cc1 (configuration not stated) | 111
24 | Cc1cnc(Nc2ccc(OCCN3CCCC3)cc2)nc1Nc1cccc([S+](=O)([O-])NC(C)(C)C)c1 | 141
25 | CC/1=C(/N2[C@H](SC1)[C@H](NC(=O)C(N)C3=CC=CC=C3)C2=O)C(O)=O (some centres not stated) | 106
26 | CCCCC(F)(F)[C@@]1(O)CC[C@H]2[C@@H](CC(=O)[C@@H]2CCCCCCC(=O)O)O1 | 110
27 | C[S+](=O)([O-])OCCCCO[S+](C)(=O)[O-] | 134
28 | C[C@H]1C[C@H]2[C@@H]3CCC4=CC(=O)C=C[C@]4(C)[C@H]3C(=O)C[C@]2(C)[C@@]1(O)C(=O)CO | 104
29 | CCOC(=O)c1c(C)n(C)c2ccc(O)cc12 | 108
30 | O=C(CCCCCCNC(=O)c1cnc(N(c2ccccc2)c2ccccc2)nc1)NO | 117

Row | Structure (SMILES) | viability
31 | OC[C@H]1O[C@H](C[C@@H]1O)N2\C=C(\I)C(=O)NC2=O | 127
32 | OC[C@H]1O[C@H](C[C@@H]1O)N2\C=C(F)/C(=O)NC2=O | 65.7
33 | N#Cc1ccc(NC(=O)Nc2ccccc2Br)c2nn[nH]c12 | 129
34 | NC1(Cc2ccc(Cl)cc2)CCN(c2ncnc3[nH]ccc23)CC1 | 62.8
35 | Cn1cc(/C=C2\C(=O)Nc3cccnc32)c2ccccc21 | 132
36 | CC(C)c1cnn2c(NCc3ccccc3)cc(NCCCCCCN)nc12 | 72.8
37 | N[S+]([O-])(=O)C1=C(Cl)C=C2\N=C/N[S+]([O-])(=O)C2=C1 | 127
38 | COC(=O)C1=C(C)NC(C)=C(C(=O)OCCN2CCN(C(c3ccccc3)c3ccccc3)CC2)C1c1cccc([N+](=O)[O-])c1.Cl.Cl (configuration not stated) | 86.5
39 | O=C(Nc1ccc(F)c(C(F)(F)F)c1)Nc1nnc(-c2ccncc2)s1 | 94
40 | Nc1n[nH]c2nnc(-c3c(-c4ccccc4)nn4ccccc34)cc12 | 88.7
41 | CC1(C)O[C@@H]2C[C@H]3[C@@H]4CCC5=CC(=O)C=C[C@]5(C)[C@H]4[C@@H](O)C[C@]3(C)[C@]2(C(=O)CO)O1 | 147
42 | O=C([O-])Cc1ccccc1Nc1c(Cl)cccc1Cl | 104
43 | CNC(=O)c1c(-c2ccc(F)cc2)oc2cc(N(CCO)[S+](C)(=O)[O-])c(C3CC3)cc12 | 69.1
44 | CCC(=O)N[C@H]1CC[C@H](C(=O)N(C)c2ccc(-c3nc4ccccc4o3)cc2)C1 | 84.8
45 | CN1CCN(C(=O)O[C@H]2c3nccnc3C(=O)N2c2ccc(Cl)cn2)CC1 | 117
46 | O=C(C1CC1)N1CC[C@@H](Cn2c(-c3ccc(-c4ccc5occc5c4)cc3)nc3cnccc32)C1 | 124
47 | CN(C)Cc1c(C(=O)NCCOc2ccc(C(=O)NO)cc2)oc2ccccc12 | 82.5
48 | COc1cc(C(C)C)c(Oc2cnc(NC(CO)CO)nc2N)cc1I | 115
49 | CC(C)(C)c1nc(-c2cccc(N[S+](=O)([O-])c3c(F)cccc3F)c2F)c(-c2ccnc(N)n2)s1 | 109
50 | Nc1ncnc2c1nc(Cl)n2[C@@H]1O[C@H](CO)[C@@H](O)[C@H]1O | 46
51 | Cl.Cl.Clc1ccc(Nc2nnc(Cc3ccncc3)c3ccccc23)cc1 | 101
52 | O=c1cc(-c2ccc(O)c(O)c2)oc2cc(O)cc(O)c12 | 115
53 | CC(=O)C\1=C(/C)C2=CN=C(NC3=CC=C(C=N3)N4CCNCC4)N=C2N(C5CCCC5)C1=O | 93
54 | c1cc(-c2sc(-c3ccncc3)c(-c3ccncc3)c2-c2ccncc2)ccn1 | 106
55 | O=C1N(c2ccccc2)c2ccccc2C1(Cc1ccncc1)Cc1ccncc1 | 108

Row | Structure (SMILES) | viability
56 | CC(C)(Cc1ccc2ccccc2c1)NC[C@@H](O)COc1cccc(Cl)c1C#N | 106
57 | Cc1cccc2c1CC[C@H](CN1CCC(c3c(Cl)cccc3Cl)CC1)C[C@@H]2O | 89
58 | CC(C)=CC[C@@H](O)C/1=C/C(=O)C2=C(O)C=CC(=C2C1=O)O | 78.5
59 | O=c1oc2cc(O)ccc2s1 | 102
60 | O=C(CCCCCCC(=O)Nc1ccccc1)NO | 99
61 | C[C@]12CC[C@@H]3c4ccc(O)cc4C[C@@H](CCCCCCCCC[S+]([O-])CCCC(F)(F)C(F)(F)F)[C@H]3[C@@H]1CC[C@@H]2O (some centres not stated) | 114
62 | Cn1c(=O)c2[nH]cnc2n(C)c1=O | 120
63 | CCOC(=O)c1ccc(OC(=O)CCCCCNC(=N)N)cc1 | 138
64 | OC1=C(Cl)C=C(N\C2=C(\C(=O)NC2=O)C3=C(C=CC=C3)[N+]([O-])=O)C=C1 | 103
65 | N#CC1(c2ccc(NC(=O)c3cccnc3NCc3ccncc3)cc2)CCCC1 | 101
66 | COC1=CC2=NC=CC(=C2C=C1)OC3=CN=C(NC(=O)C/4=C(C)/N(CC(C)(C)O)N(C4=O)C5=CC=CC=C5)C=C3 | 84.6
67 | CCOC(=O)[C@H](CCc1ccccc1)N[C@H]1CS[C@H](c2cccs2)CN(CC(=O)O)C1=O.Cl | 118
68 | COc1nc(C)cnc1N[S+](=O)([O-])c1cccnc1-c1ccc(-c2nnco2)cc1 | 138
69 | CN1C(=O)CCS(=O)(=O)C1c1ccc(Cl)cc1 (configuration not stated) | 104
70 | COc1cc(OC)c(OC)cc1C=O | 107
71 | CC1(C)Cc2c(-c3ccccc3)c(-c3ccc(Cl)cc3)c(CC(=O)O)n2C1 | 102
72 | Cc1cc(-c2ccc(CC(=O)Nc3ccc(-c4cccnc4)cc3)cc2)ccn1 | 118
73 | Cc1ccc(Nc2nccc(N(C)c3ccc4c(C)n(C)nc4c3)n2)cc1[S+](N)(=O)[O-] | 117
74 | CCCc1nc(C(C)(C)O)c(C(=O)O)n1Cc1ccc(-c2ccccc2-c2nn[nH]n2)cc1 | 107
75 | O=C(/C=C/c1ccc(O)cc1)c1ccc(O)cc1O | 77
76 | CC(=O)Nc1sc2c(c1-c1nc3ccccc3s1)CNC2 | 86.3
77 | CC(C)[C@H](N)C(=O)OCCOC[N]1C=NC2=C1\N=C(N)/NC2=O | 107
78 | C[S+](=O)([O-])c1ccc(-c2cnc(N)c(C(=O)Nc3ccccc3)n2)cc1 | 132
79 | C[C@H]1O[C@H](O[C@H]2[C@H](O)[C@@H](O)[C@H](O[C@@H]2CO)O[C@H]3[C@H](O)[C@@H](O)C(O)O[C@@H]3CO)[C@H](O)[C@@H](O)[C@@H]1N[C@H]4\C=C(CO)/[C@@H](O)[C@H](O)[C@H]4O (some centres not stated) | 135
80 | COC1=CC=C(C=C1)C/2=C/OC3=C(C(=CC(=C3)O)O)C2=O | 120

same assay, conditions: library / dose series: MIPE library, 11-point 1:3 dilution; top concentration 92.2 µM; 48 h

Row | Structure (SMILES) | viability
81 | C[C@@H](NC1=CC=CC=C1C(O)=O)C/2=C/C(=C\N3C(=O)/C=C(\N=C23)N4CCOCC4)C | 34.9
82 | Cc1cc(Nc2cc(N3CCN(C)CC3)nc(/C=C/c3ccccc3)n2)n[nH]1 | 54.1
